From ChEMBL document CHEMBL4616632, “Discovery of Cyclic Boronic Acid QPX7728, an Ultrabroad-Spectrum Inhibitor of Serine and Metallo-β-lactamases” (J Med Chem, 2020) come the findings set out here.

Assay [1] relates to Enterobacter cloacae. Put plainly: Inhibition of Enterobacter cloacae ECL1002 AmpC assessed as minimum concentration of compound needed to reduce the MIC of aztreonam to 4 ug/ml.
The test system of assay [2] is Klebsiella pneumoniae. Put plainly: Inhibition of Klebsiella pneumoniae KP1054 VIM-1 assessed as minimum concentration of compound required to reduce the MIC of biapenem to 1 ug/ml.
The test system of assay [3] is Klebsiella pneumoniae. As to the kind of experiment: Inhibition of Klebsiella pneumoniae KP1081 NDM-1 assessed as minimum concentration of compound required to reduce the MIC of biapenem to 1 ug/ml.
The test system of assay [4] is Klebsiella pneumoniae. As to the kind of experiment: Inhibition of Klebsiella pneumoniae KP1009 CTX-M-15 assessed as minimum concentration of compound required to reduce the MIC of aztreonam to 4 ug/ml.
In assay [5] the test system is Escherichia coli. As to the kind of experiment: Inhibition of Escherichia coli EC302 TEM-10 assessed as minimum concentration of compound needed to reduce the MIC of aztreonam to 4 ug/ml.
Assay [6] addresses Beta-lactamase (Klebsiella pneumoniae) (UniProt Q93LQ9). Put plainly: Inhibition of Klebsiella pneumoniae KP1004 KPC-2 assessed as minimum concentration of compound needed to reduce the MIC of aztreonam to 4 ug/ml.
Assay [7] relates to Escherichia coli. Put plainly: Inhibition of Escherichia coli KP308 SHV-5 assessed as minimum concentration of compound required to reduce the MIC of aztreonam to 4 ug/ml.
The test system of assay [8] is Pseudomonas aeruginosa. As to the kind of experiment: Inhibition of Pseudomonas aeruginosa PAM 2035 AmpC assessed as minimum concentration of compound needed to reduce the MIC of aztreonam to 4 ug/ml.
Assay [9] concerns Klebsiella pneumoniae. Put plainly: Inhibition of Klebsiella pneumoniae KP1160 IMP-26 assessed as minimum concentration of compound needed to reduce the MIC of meropenem to 1 ug/ml.

Sequence of Beta-lactamase (Klebsiella pneumoniae) (Q93LQ9 as listed by the source): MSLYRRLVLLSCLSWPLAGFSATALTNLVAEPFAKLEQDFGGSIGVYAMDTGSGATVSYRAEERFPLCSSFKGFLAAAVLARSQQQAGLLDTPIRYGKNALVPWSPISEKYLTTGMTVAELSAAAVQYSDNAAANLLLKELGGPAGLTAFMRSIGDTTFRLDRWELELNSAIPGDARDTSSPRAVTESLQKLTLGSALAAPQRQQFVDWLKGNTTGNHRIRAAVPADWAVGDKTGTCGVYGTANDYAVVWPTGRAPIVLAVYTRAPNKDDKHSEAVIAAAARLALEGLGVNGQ

In the case of `NC(=O)CCS[C@H]1Cc2cccc(C(=O)O)c2OB1O`, the MEC was greater than 20 µg/mL in assay [1]; 1.25 µg/mL in [2]; 1.25 µg/mL in [3]; greater than 20 µg/mL in assay [4]; greater than 20 µg/mL in assay [5]; 5 µg/mL in assay [6]. In addition, the MEC in assay [7] is greater than 20 µg/mL.

For the molecule `CO[C@H]1Cc2cccc(C(=O)O)c2OB1O`, the MEC in assay [1] is 2.5 µg/mL; in [2], 0.16 µg/mL; in [3] it was 0.6 µg/mL; in assay [4], 10 µg/mL; in [5] it was 20 µg/mL; in [6] it was 0.3 µg/mL. In addition, the MEC in assay [7] worked out at 2.5 µg/mL.

For `CSCCOc1ccc2c(c1C(=O)O)OB(O)[C@@H](Sc1nncs1)C2`, the MEC is greater than 20 µg/mL in assay [1]; 10 µg/mL in [8]; 1.25 µg/mL in [2]; 2.5 µg/mL in [3]; greater than 20 µg/mL in assay [4]; greater than 20 µg/mL in assay [5]. Further, the MEC was determined as 20 µg/mL in [6], 0.6 µg/mL in assay [9] and 10 µg/mL in assay [7].

On to `O=C(O)c1c(OC(F)F)ccc2c1OB(O)[C@@H](Sc1nncs1)C2`, for which the MEC in assay [1] is greater than 20 µg/mL; in [8], 20 µg/mL; in [2] it was 1.25 µg/mL; in assay [3], 1.25 µg/mL; in [4] it was 20 µg/mL; in assay [5], 20 µg/mL. Besides, the MEC in assay [6] stood at 5 µg/mL; in assay [9], 20 µg/mL; in [7], 2.5 µg/mL.

In the case of `O=C(O)c1c(OCc2nncs2)ccc2c1OB(O)[C@@H](Sc1nncs1)C2`, the MEC is greater than 20 µg/mL in assay [1]; greater than 20 µg/mL in assay [8]; 0.3 µg/mL in assay [2]; 2.5 µg/mL in assay [3]; 20 µg/mL in assay [4]; 5 µg/mL in assay [5]. In addition, the MEC in assay [6] is 20 µg/mL; in assay [9], 2.5 µg/mL; in assay [7] it was 5 µg/mL.

Turning to `N=C(N)S[C@H]1Cc2cccc(C(=O)O)c2OB1O`, the MEC in assay [1], in [2], in [3], in [4], in [5] and in [6] was greater than 20 µg/mL each time. Further, the MEC in [7] is greater than 20 µg/mL.

Turning to `O=C(O)c1cccc2c1OB(O)[C@@H](Sc1ncc[nH]1)C2`, the MEC in [1] was greater than 10 µg/mL; in assay [2], greater than 20 µg/mL; in [3] it was greater than 20 µg/mL; in [4] it was greater than 10 µg/mL; in assay [5], greater than 10 µg/mL; in [6], greater than 10 µg/mL. Besides, the MEC in assay [7] is greater than 10 µg/mL.

Turning to `Nc1nnc(S[C@H]2Cc3ccc(OCC(F)F)c(C(=O)O)c3OB2O)s1`, the MEC in assay [1] was greater than 20 µg/mL; in assay [8] it was 20 µg/mL; in [2], 0.3 µg/mL; in assay [3], 1.25 µg/mL; in [4], greater than 20 µg/mL; in assay [5], greater than 20 µg/mL. Further, the MEC is 10 µg/mL in [6], 1.25 µg/mL in assay [9] and greater than 20 µg/mL in assay [7].

Turning to `CS[C@H]1Cc2cccc(C(=O)O)c2OB1O`, the MEC was greater than 20 µg/mL in [1]; less than 0.3 µg/mL in [2]; 0.6 µg/mL in assay [3]; greater than 20 µg/mL in assay [4]; greater than 20 µg/mL in assay [5]; 2.5 µg/mL in assay [6]. For the same molecule, the MEC in [7] is greater than 20 µg/mL.

`O=C(O)c1cccc2c1OB(O)[C@@H](Sc1c[nH]nn1)C2`: the MEC in assay [1] was greater than 20 µg/mL; in assay [2], 0.6 µg/mL; in assay [3], 0.3 µg/mL; in assay [4], greater than 20 µg/mL; in assay [5], greater than 20 µg/mL; in assay [6], greater than 20 µg/mL. Further, the MEC in [7] was 5 µg/mL.

As to `COCCOc1ccc2c(c1C(=O)O)OB(O)[C@@H](Sc1nncs1)C2`, the MEC was greater than 20 µg/mL in [1]; greater than 20 µg/mL in [8]; 0.16 µg/mL in [2]; 0.6 µg/mL in [3]; 20 µg/mL in assay [4]; greater than 20 µg/mL in assay [5]. Also, the MEC in assay [6] was 20 µg/mL; in assay [9], 1.25 µg/mL; in [7], 10 µg/mL.

On to `O=C(O)c1cccc2c1OB(O)[C@@H](Sc1ccccn1)C2`, for which the MEC is greater than 10 µg/mL in assay [1]; greater than 20 µg/mL in [2]; greater than 20 µg/mL in [3]; greater than 10 µg/mL in assay [4]; greater than 10 µg/mL in assay [5]; greater than 10 µg/mL in [6]. For the same molecule, in assay [7], the MEC was greater than 10 µg/mL.

Consider `O=C(O)c1c(OC2COC2)ccc2c1OB(O)[C@@H](Sc1nncs1)C2`, for which the MEC in [1] was greater than 20 µg/mL; in assay [8], greater than 20 µg/mL; in assay [2], 20 µg/mL; in assay [3] it was greater than 20 µg/mL; in assay [4] it was greater than 20 µg/mL; in assay [5], greater than 20 µg/mL. Besides, the MEC in assay [6], in [9] and in assay [7] was greater than 20 µg/mL throughout.

In the case of `O=C(O)c1cccc2c1OB(O)[C@@H](Sc1cccnc1)C2`, the MEC in assay [1] was greater than 20 µg/mL; in assay [2], 1.25 µg/mL; in [3] it was 2.5 µg/mL; in assay [4], greater than 20 µg/mL; in assay [5], greater than 20 µg/mL; in assay [6] it was greater than 20 µg/mL. Moreover, the MEC in assay [7] is greater than 20 µg/mL.

Take `Cn1cnnc1S[C@H]1Cc2cccc(C(=O)O)c2OB1O`: the MEC in assay [1] was greater than 20 µg/mL; in assay [2], less than 0.3 µg/mL; in assay [3] it was less than 0.3 µg/mL; in assay [4] it was greater than 20 µg/mL; in assay [5] it was greater than 20 µg/mL; in assay [6], greater than 20 µg/mL. Also, the MEC in [7] is greater than 20 µg/mL.

Turning to `O=C(O)c1c(OCCF)ccc2c1OB(O)[C@@H](Sc1nncs1)C2`, the MEC in assay [1] was greater than 20 µg/mL; in [8], 20 µg/mL; in assay [2], 0.16 µg/mL; in assay [3], 0.6 µg/mL; in [4] it was 20 µg/mL; in assay [5] it was 20 µg/mL. Moreover, the MEC amounted to 5 µg/mL in assay [6], 2.5 µg/mL in assay [9] and 5 µg/mL in assay [7].

Turning to `Nc1nnc(S[C@H]2Cc3cccc(C(=O)O)c3OB2O)[nH]1`, the MEC was greater than 20 µg/mL in assay [1]; less than 0.3 µg/mL in [2]; less than 0.3 µg/mL in assay [3]; greater than 20 µg/mL in [4]; greater than 20 µg/mL in assay [5]; greater than 20 µg/mL in [6]. Also, the MEC in assay [7] is greater than 20 µg/mL.

Turning to `O=C(O)c1cccc2c1OB(O)[C@@H](Sc1ncccn1)C2`, the MEC in assay [1] was greater than 20 µg/mL; in assay [2], 20 µg/mL; in assay [3], 10 µg/mL; in [4], greater than 20 µg/mL; in [5], greater than 20 µg/mL; in [6], greater than 20 µg/mL. Moreover, the MEC in assay [7] is greater than 20 µg/mL.

Regarding `O=C(O)c1cccc2c1OB(O)[C@@H](OC1CNC1)C2`, the MEC in [1] is 2.5 µg/mL; in assay [2] it was 0.6 µg/mL; in assay [3], 0.6 µg/mL; in [4], greater than 20 µg/mL; in assay [5], greater than 20 µg/mL; in [6], greater than 20 µg/mL. In addition, the MEC in assay [7] was greater than 20 µg/mL.

Regarding `Nn1cnnc1S[C@H]1Cc2cccc(C(=O)O)c2OB1O`, the MEC is 5 µg/mL in assay [1]; 0.3 µg/mL in assay [2]; 0.16 µg/mL in [3]; 10 µg/mL in assay [4]; greater than 20 µg/mL in assay [5]; 5 µg/mL in [6]. In assay [7], the MEC amounted to 10 µg/mL.

On to `O=C(O)c1cccc2c1OB(O)[C@@H](Sc1nccs1)C2`, for which the MEC in assay [1] was greater than 20 µg/mL; in assay [2], 2.5 µg/mL; in assay [3], 0.3 µg/mL; in assay [4], greater than 20 µg/mL; in assay [5] it was greater than 20 µg/mL; in [6] it was greater than 20 µg/mL. For the same molecule, the MEC in [7] is 10 µg/mL.

As to `O=C(O)c1c(F)ccc2c1OB(O)[C@@H](Sc1nncs1)C2`, the MEC in assay [1] was 5 µg/mL; in assay [8], 20 µg/mL; in assay [2], 1.25 µg/mL; in assay [3], 0.6 µg/mL; in [4], 10 µg/mL; in assay [5], 5 µg/mL. Moreover, the MEC in assay [6] is 2.5 µg/mL; in assay [9], 20 µg/mL; in [7], 0.3 µg/mL.

Consider `O=C(O)c1c(OCC2CC2)ccc2c1OB(O)[C@@H](Sc1nncs1)C2`, for which the MEC was greater than 20 µg/mL in assay [1]; 20 µg/mL in [8]; 0.16 µg/mL in assay [2]; 1.25 µg/mL in assay [3]; greater than 20 µg/mL in assay [4]; 20 µg/mL in assay [5]. For the same molecule, the MEC is greater than 20 µg/mL in [6], 0.3 µg/mL in assay [9] and 10 µg/mL in [7].

On to `Nc1nnc(S[C@H]2Cc3cccc(C(=O)O)c3OB2O)s1`, for which the MEC in assay [1] was greater than 10 µg/mL; in assay [2], 0.16 µg/mL; in [3], 0.3 µg/mL; in assay [4], greater than 10 µg/mL; in [5], greater than 10 µg/mL; in [6], 10 µg/mL. Moreover, the MEC in assay [7] amounted to 5 µg/mL.

For the molecule `NC(=O)CS[C@H]1Cc2cccc(C(=O)O)c2OB1O`, the MEC in [1] is greater than 10 µg/mL; in assay [2], 2.5 µg/mL; in [3], 0.6 µg/mL; in [4] it was greater than 10 µg/mL; in assay [5], greater than 10 µg/mL; in [6], 5 µg/mL. Moreover, the MEC in [7] was greater than 10 µg/mL.

As for `O=C(O)c1cccc2c1OB(O)[C@@H](Sc1nnc[nH]1)C2`, the MEC in assay [1] was greater than 40 µg/mL; in assay [2], 2.5 µg/mL; in [3] it was less than 0.3 µg/mL; in [4] it was 5 µg/mL; in [5] it was greater than 40 µg/mL; in [6], greater than 40 µg/mL. In addition, in [7], the MEC was greater than 40 µg/mL.
